Results from US20220168442A1, “ARTIFICIAL T-CELL STIMULATING MATRIX FOR IMMUNOTHERAPY” (The Johns Hopkins University, priority 2019, published 2022).
Ends that are not written are not given here.

Experiments:
Assay type in all cases: cell-based, mouse
[1] = test system: B6 CD8+ T cells; experiment: CD8+ T cell fold expansion after seven days of stimulation on aTM; conditions: added to culture on 0.5-kPa aTM; 100 μM; same amount of stimulatory ligand
Protocol: Murine cells were obtained from adult mouse lymph nodes and spleens. Obtained cells were treated with ACK lysing buffer to lyse red blood cells and filtered through cell strainers to isolate splenocytes. PBMCs from healthy donors were isolated by Ficoll-Paque PLUS gradient centrifugation (GE Healthcare). CD8+T lymphocytes were then isolated from splenocytes or PBMCs by negative selection using CD8+ isolation kits and magnetic columns from Miltenyi Biotech (Auburn, Calif., USA) according to the manufacturer's protocol. […]
CD8+ T cells were isolated as previous described and resuspended in 1 mL T cell culture media. […] The CFSE fluorescence intensity was measured using BD FACSCALIBUR™ flow cytometer. Cell proliferation was analyzed using FLOWJO™ with diluted CFSE fluorescence peaks signifying population after each round of cell division. A subset of the cells were allowed to expand for 7 days and viable cells were counted with a hemocytometer to determine fold expansion. […]

[2] = test system: PMEL CD8+ T cells; experiment: aTM with laminin or cyclic RGD attached, T cell expansion; conditions: laminin 20 μg/mL or cyclic RGD 100 μM incorporated into aTM
Protocol: HA solution was prepared as previously described. Anti-CD3 and anti-CD28 antibodies were purchased respectively from BioXCell (145-2C11; West Lebanon, N.H., USA) and BioLegend (37.51; San Diego, Calif., USA). […] PEGDA crosslinker was added to reduced MHC-Ig dimers, anti-CD3 and anti-CD28 antibody solutions to a final concentration of 0.5% PEGDA for preparation for crosslinking. Prior to hydrogel formation, MHC-Ig dimers or anti-CD3 antibodies and anti-CD28 co-stimulatory signals with 0.5% PEGDA were added to the HA solution to directly attach signals on HA through thiol-diene chemistry. The HA-antibody solution was then mixed with PEGDA crosslinker at a 4:1 ratio to be plated. The aTM was allowed to form within flat-bottomed tissue culture plates to form a complete layer for at least 1 hour prior to washing 3 times with 1×PBS to remove any unbound stimulatory signal, and cells were subsequently plated. To investigate the effects of extracellular matrix (ECM) protein attachment, cyclic RGD (CCRRGDWLC (SEQ ID NO: 1)), which was synthesized by solid phase methods as described previously (Li et al., Stem Cells Transl. Med., 3: 662-670 (2014)), or laminin (ThermoFisher) were added to make a HA solution with protein concentration of 100 μM and 20 μg/mL, respectively, prior to the hydrogel formation. […]

[3] = test system: murine CD8+ T cells; experiment: aLN ex vivo CD8+ T cell expansion and phenotype, day 7
Protocol: Artificial lymph nodes (aLNs) were synthesized by mixing 0.8 w/v % thiolated HA with either 0.1 or 2 w/v % of the crosslinker PEG-diacrylate (PEGDA), which was pre-mixed with 5 μg/mL thiolated anti-CD3 and anti-CD28 antibodies, and either no protein, 100 μM cyclic RGD, or 20 μg/mL laminin was added. Isolated murine CD8+ T cells were added to the surface of the aLNs. On day 7 viable cells were harvested, counted, and stained for phenotypic markers for flow cytometry (CD8, CD44, CD62L). For in vivo experiments, B6 mice received subcutaneous injection of aLN treatment (no protein, 570 Pa, with antigen-specific stimulation from KbSIY for 2C CD8+ T cells) or PBS. 2C CD8+ T cells were isolated, labeled with CellTrace CFSE dye and injected retro-orbitally on the same day. On days 3 and 6, blood samples were taken for CFSE division analysis via flow cytometry.

## Cc1ccc2c(c1)C(=O)C1(O)CCN(c3ccccc3)C1=N2 (centres unmarked) [blebbistatin]
[1]
  CD8+ T cell expansion in the presence of the inhibitor: abolished

## CCRRGDWLC (SEQ ID NO: 1) (also: cyclic (mode not given here)) [cyclic RGD cell-adhesive peptide attached to aTM / aLN]
[2]
  effect of cell-adhesive ligands on stimulation of antigen-specific PMEL CD8+ T cells: further increased T cell proliferation
[3]; 570-Pa aLN, day 7
  percent memory T cells: increased
[3]; attached to softer aLNs
  total expansion compared to no protein and laminin: nearly doubled total expansion

## laminin
[3]; 570-Pa aLN, day 7
  percent activated T cells: increased
